According to patent US11752188B2, “Compositions and methods for nutritional supplements” (DailyColors Health Inc., priority 2020, dated 2023):
Where two headings read alike, the source gives them in different places.

Legend:
[1] = biological target: recombinant human Cathepsin S (Homo sapiens, UniProt P25774); test: Cathepsin S in vitro enzymatic assay (fluorogenic substrate); format: biochemical
Description: Assay Conditions: Cathepsin S was activated by diluting the concentrated storage stock into the acidic assay buffer for 30 minutes at room temperature. Then, 5 μl of the sample or reference inhibitor was added to 20 μl of enzyme solution and pre-incubated for 30 minutes. The enzymatic reactions were started by the addition of 25 μl of the fluorogenic substrate, for a total reaction volume of 50 μl. Reaction time was 60 minutes, and then fluorescence intensity at an excitation of 360 nm and an emission of 460 nm was read using a Tecan Infinite M1000 microplate reader.
(§1) Data Analysis: Enzyme activity assays were performed in duplicates at each concentration. The fluorescence intensity data were analyzed and compared. In the absence of the compound, the intensity in each data set was defined as 100% (Ce) activity. In the absence of enzyme, the intensity in each data set was defined as 0% (C0) activity. […] Compound fluorescence was removed by subtracting fluorescence at reaction time=0.

recombinant human CD38 = biological target: T1, recombinant human CD38 (Homo sapiens, UniProt P28907); test: CD38 hydrolase in vitro enzymatic assay (ε-NAD+ substrate); format: biochemical
T1 construct: purchased 71277
T1 sequence (P28907 1-300): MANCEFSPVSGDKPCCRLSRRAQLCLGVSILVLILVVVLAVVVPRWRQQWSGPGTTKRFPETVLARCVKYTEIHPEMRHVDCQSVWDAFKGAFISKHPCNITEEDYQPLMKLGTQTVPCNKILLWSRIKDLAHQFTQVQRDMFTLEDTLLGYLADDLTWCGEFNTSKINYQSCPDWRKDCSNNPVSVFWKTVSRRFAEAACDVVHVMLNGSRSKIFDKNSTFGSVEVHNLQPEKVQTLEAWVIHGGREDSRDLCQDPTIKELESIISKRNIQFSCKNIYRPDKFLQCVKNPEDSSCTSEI
Source text: Here, DC-5=Yellow Blend, DC-9=Purple Blend, DC-21-Green Blend, DC-13=Red Blend DCH-TIV 1.0 (Adult Centrum Multivitamins). The red blend included Apple Extract, Pomegranate Extract, Tomato Powder, Beet; the green blend included Olive Extract, Rosemary Extract, Green Coffee Bean Extract, Kale; the orange/yellow blend included Onion Extract, Ginger Extract, Grapefruit Extract, Carrot; and the purple/blue blend included Grape, Blueberry Extract, Currant, and Elderberry as listed above.
Assay Conditions: 10 μl of the sample or reference inhibitor was added to 20 μl of enzyme solution and pre-incubated for 30 minutes. The enzymatic reactions were started by the addition of 20 μl of the substrate ε-NAD+, for a total reaction volume of 50 μl. Reaction time was 10 minutes, and then fluorescence intensity at an excitation of 300 nm and an emission of 410 nm was read using a Tecan Infinite M1000 microplate reader.
as §1

recombinant human Cathepsin S, sequence (P25774 115-331): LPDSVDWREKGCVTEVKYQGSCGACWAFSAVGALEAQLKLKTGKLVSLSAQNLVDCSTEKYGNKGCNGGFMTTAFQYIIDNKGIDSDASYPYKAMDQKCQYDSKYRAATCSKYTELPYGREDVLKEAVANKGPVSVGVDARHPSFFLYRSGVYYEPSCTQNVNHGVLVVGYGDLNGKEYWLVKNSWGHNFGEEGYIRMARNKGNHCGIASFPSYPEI

## CC(C)C[C@H](NC(=O)[C@H]1O[C@@H]1C(=O)O)C(=O)NCCCCN=C(N)N [E-64]
[1]; 1 nM, Table 35
  Activity (%) Repeat 1: 98%
  Activity (%) Repeat 2: 95%
  Inhibition (%): 4%
  Net Signal (Fluorescence counts) Repeat 1: 9894 Fluorescence counts
  Net Signal (Fluorescence counts) Repeat 2: 9604 Fluorescence counts
[1]; 1 nM, Table 36
  Activity (%) Repeat 1: 99%
  Activity (%) Repeat 2: 100%
  Inhibition (%): 1%
  Net Signal (Fluorescence counts) Repeat 1: 8864 Fluorescence counts
  Net Signal (Fluorescence counts) Repeat 2: 8931 Fluorescence counts
[1]; 0.001 μM, Table 37
  Activity (%) Repeat 1: 88%
  Activity (%) Repeat 2: 83%
  Inhibition (%): 15%
  Net Signal (Fluorescence counts) Repeat 1: 52418 Fluorescence counts
  Net Signal (Fluorescence counts) Repeat 2: 49644 Fluorescence counts
[1]; 10 nM, Table 35
  Activity (%) Repeat 1: 51%
  Activity (%) Repeat 2: 54%
  Inhibition (%): 48%
  Net Signal (Fluorescence counts) Repeat 1: 5170 Fluorescence counts
  Net Signal (Fluorescence counts) Repeat 2: 5444 Fluorescence counts
[1]; 10 nM, Table 36
  Activity (%) Repeat 1: 64%
  Activity (%) Repeat 2: 59%
  Inhibition (%): 38%
  Net Signal (Fluorescence counts) Repeat 1: 5727 Fluorescence counts
  Net Signal (Fluorescence counts) Repeat 2: 5326 Fluorescence counts
[1]; 0.01 μM, Table 37
  Activity (%) Repeat 1: 36%
  Activity (%) Repeat 2: 33%
  Inhibition (%): 66%
  Net Signal (Fluorescence counts) Repeat 1: 21262 Fluorescence counts
  Net Signal (Fluorescence counts) Repeat 2: 19656 Fluorescence counts
[1]; 0.1 μM, Table 37
  Activity (%) Repeat 1: 5%
  Activity (%) Repeat 2: 6%
  Inhibition (%): 95%
  Net Signal (Fluorescence counts) Repeat 1: 3091 Fluorescence counts
  Net Signal (Fluorescence counts) Repeat 2: 3478 Fluorescence counts
[1]; 100 nM, Table 35
  Activity (%) Repeat 1: 9%
  Activity (%) Repeat 2: 9%
  Inhibition (%): 91%
  Net Signal (Fluorescence counts) Repeat 1: 958 Fluorescence counts
  Net Signal (Fluorescence counts) Repeat 2: 960 Fluorescence counts
[1]; 100 nM, Table 36
  Activity (%) Repeat 1: 11%
  Activity (%) Repeat 2: 12%
  Inhibition (%): 89%
  Net Signal (Fluorescence counts) Repeat 1: 1009 Fluorescence counts
  Net Signal (Fluorescence counts) Repeat 2: 1033 Fluorescence counts

## O=c1cc(-c2ccc(O)cc2)oc2cc(O)cc(O)c12 [Apigenin]
Recombinant human CD38; 1 μM, Table 61
  Net Signal (Fluorescence counts) Repeat 1: 3461 Fluorescence counts
  Net Signal (Fluorescence counts) Repeat 2: 3761 Fluorescence counts
  inhibition at 1 µM: 14%
Recombinant human CD38; 1 μM, Table 61, read-out: Activity (%) Repeat 1
  activity at 1 µM: 82%
Recombinant human CD38; 1 μM, Table 61, read-out: Activity (%) Repeat 2
  activity at 1 µM: 89%
Recombinant human CD38; 1 μM, Table 62
  Net Signal (Fluorescence counts) Repeat 1: 8650 Fluorescence counts
  Net Signal (Fluorescence counts) Repeat 2: 8614 Fluorescence counts
  inhibition at 1 µM: 6%
Recombinant human CD38; 1 μM, Table 62, read-out: Activity (%) Repeat 1
  activity at 1 µM: 94%
Recombinant human CD38; 1 μM, Table 62, read-out: Activity (%) Repeat 2
  activity at 1 µM: 94%
Recombinant human CD38; 1 μM, Table 63
  Net Signal (Fluorescence counts) Repeat 1: 11531 Fluorescence counts
  Net Signal (Fluorescence counts) Repeat 2: 11647 Fluorescence counts
  inhibition at 1 µM: 14%
Recombinant human CD38; 1 μM, Table 63, read-out: Activity (%) Repeat 1
  activity at 1 µM: 86%
Recombinant human CD38; 1 μM, Table 63, read-out: Activity (%) Repeat 2
  activity at 1 µM: 86%
Recombinant human CD38; 1 μM, TABLE 64
  Net Signal (Fluorescence counts) Repeat 1: 4138 counts
  Net Signal (Fluorescence counts) Repeat 2: 3883 counts
  inhibition at 1 µM: 8%
Recombinant human CD38; 1 μM, TABLE 64, read-out: Activity (%) Repeat 1
  activity at 1 µM: 95%
Recombinant human CD38; 1 μM, TABLE 64, read-out: Activity (%) Repeat 2
  activity at 1 µM: 89%
Recombinant human CD38; 10 μM, Table 61
  Net Signal (Fluorescence counts) Repeat 1: 647 Fluorescence counts
  Net Signal (Fluorescence counts) Repeat 2: 618 Fluorescence counts
  inhibition at 10 µM: 85%
Recombinant human CD38; 10 μM, Table 61, read-out: Activity (%) Repeat 1
  activity at 10 µM: 15%
Recombinant human CD38; 10 μM, Table 61, read-out: Activity (%) Repeat 2
  activity at 10 µM: 14%
Recombinant human CD38; 10 μM, Table 62
  Net Signal (Fluorescence counts) Repeat 1: 4670 Fluorescence counts
  Net Signal (Fluorescence counts) Repeat 2: 5416 Fluorescence counts
  inhibition at 10 µM: 45%
Recombinant human CD38; 10 μM, Table 62, read-out: Activity (%) Repeat 1
  activity at 10 µM: 51%
Recombinant human CD38; 10 μM, Table 62, read-out: Activity (%) Repeat 2
  activity at 10 µM: 59%
Recombinant human CD38; 10 μM, Table 63
  Net Signal (Fluorescence counts) Repeat 1: 7118 Fluorescence counts
  Net Signal (Fluorescence counts) Repeat 2: 7228 Fluorescence counts
  inhibition at 10 µM: 47%
Recombinant human CD38; 10 μM, Table 63, read-out: Activity (%) Repeat 1
  activity at 10 µM: 53%
Recombinant human CD38; 10 μM, Table 63, read-out: Activity (%) Repeat 2
  activity at 10 µM: 54%
Recombinant human CD38; 10 μM, TABLE 64
  Net Signal (Fluorescence counts) Repeat 1: 3091 counts
  Net Signal (Fluorescence counts) Repeat 2: 3057 counts
  inhibition at 10 µM: 30%
Recombinant human CD38; 10 μM, TABLE 64, read-out: Activity (%) Repeat 1
  activity at 10 µM: 70%
Recombinant human CD38; 10 μM, TABLE 64, read-out: Activity (%) Repeat 2
  activity at 10 µM: 70%
Recombinant human CD38; 100 μM, Table 61
  Net Signal (Fluorescence counts) Repeat 1: 185 Fluorescence counts
  Net Signal (Fluorescence counts) Repeat 2: 135 Fluorescence counts
  inhibition at 100 µM: 96%
Recombinant human CD38; 100 μM, Table 61, read-out: Activity (%) Repeat 1
  activity at 100 µM: 4%
Recombinant human CD38; 100 μM, Table 61, read-out: Activity (%) Repeat 2
  activity at 100 µM: 3%
Recombinant human CD38; 100 μM, Table 62
  Net Signal (Fluorescence counts) Repeat 1: 1979 Fluorescence counts
  Net Signal (Fluorescence counts) Repeat 2: 2165 Fluorescence counts
  inhibition at 100 µM: 78%
Recombinant human CD38; 100 μM, Table 62, read-out: Activity (%) Repeat 1
  activity at 100 µM: 21%
Recombinant human CD38; 100 μM, Table 62, read-out: Activity (%) Repeat 2
  activity at 100 µM: 23%
Recombinant human CD38; 100 μM, Table 63
  Net Signal (Fluorescence counts) Repeat 1: 5012 Fluorescence counts
  Net Signal (Fluorescence counts) Repeat 2: 5473 Fluorescence counts
  inhibition at 100 µM: 61%
Recombinant human CD38; 100 μM, Table 63, read-out: Activity (%) Repeat 1
  activity at 100 µM: 37%
Recombinant human CD38; 100 μM, Table 63, read-out: Activity (%) Repeat 2
  activity at 100 µM: 40%
Recombinant human CD38; 100 μM, TABLE 64
  Net Signal (Fluorescence counts) Repeat 1: 632 counts
  Net Signal (Fluorescence counts) Repeat 2: 728 counts
  inhibition at 100 µM: 85%
Recombinant human CD38; 100 μM, TABLE 64, read-out: Activity (%) Repeat 1
  activity at 100 µM: 14%
Recombinant human CD38; 100 μM, TABLE 64, read-out: Activity (%) Repeat 2
  activity at 100 µM: 16%
